According to patent US20240116922A1, “IMIDAZO[1,2-A]PYRIDINE DERIVATIVES AS IRAK4 INHIBITORS AND THEIR USE IN THE TREATMENT OF DISEASE” (BIOGEN MA INC., priority 2020, published 2024):
In brackets after ≈: the same amount, converted by molar mass. Structures can show the parent of a compound that is named as a salt.

Assays:
[1] = Kinetic solubility assay (CLND), pH 6.8; type: physicochemical; details: aqueous buffer, kinetic from dmso stock; potassium phosphate buffer pH 6.8, 2% DMSO, 24 hours at ambient temperature
[2] = molecular target: MDR1 (Homo sapiens (Human), UniProt P08183); assay: in vitro; details: MDCK-MDR1
[3] = molecular target: IRAK4 (Homo sapiens (Human), UniProt Q9NWZ3); assay: IRAK4 MSD biochemical assay (2-hour 1 mM ATP); details: 0.1 nM IRAK4, 1 mM ATP, 2 hour at room temperature
IRAK4, sequence (Q9NWZ3 whole entry): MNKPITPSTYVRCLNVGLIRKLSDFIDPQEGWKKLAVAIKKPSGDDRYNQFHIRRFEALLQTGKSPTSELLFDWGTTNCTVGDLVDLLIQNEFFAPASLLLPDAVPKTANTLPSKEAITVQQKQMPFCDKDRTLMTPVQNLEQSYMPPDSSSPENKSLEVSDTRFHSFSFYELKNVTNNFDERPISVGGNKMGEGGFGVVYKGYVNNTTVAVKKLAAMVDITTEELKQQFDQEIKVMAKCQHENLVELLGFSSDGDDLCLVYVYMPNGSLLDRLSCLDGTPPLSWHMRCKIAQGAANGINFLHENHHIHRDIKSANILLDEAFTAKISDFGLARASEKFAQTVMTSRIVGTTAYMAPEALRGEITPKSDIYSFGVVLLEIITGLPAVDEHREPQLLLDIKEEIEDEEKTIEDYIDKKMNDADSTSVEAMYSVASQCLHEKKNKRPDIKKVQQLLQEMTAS

MDR1, sequence (P08183 whole entry): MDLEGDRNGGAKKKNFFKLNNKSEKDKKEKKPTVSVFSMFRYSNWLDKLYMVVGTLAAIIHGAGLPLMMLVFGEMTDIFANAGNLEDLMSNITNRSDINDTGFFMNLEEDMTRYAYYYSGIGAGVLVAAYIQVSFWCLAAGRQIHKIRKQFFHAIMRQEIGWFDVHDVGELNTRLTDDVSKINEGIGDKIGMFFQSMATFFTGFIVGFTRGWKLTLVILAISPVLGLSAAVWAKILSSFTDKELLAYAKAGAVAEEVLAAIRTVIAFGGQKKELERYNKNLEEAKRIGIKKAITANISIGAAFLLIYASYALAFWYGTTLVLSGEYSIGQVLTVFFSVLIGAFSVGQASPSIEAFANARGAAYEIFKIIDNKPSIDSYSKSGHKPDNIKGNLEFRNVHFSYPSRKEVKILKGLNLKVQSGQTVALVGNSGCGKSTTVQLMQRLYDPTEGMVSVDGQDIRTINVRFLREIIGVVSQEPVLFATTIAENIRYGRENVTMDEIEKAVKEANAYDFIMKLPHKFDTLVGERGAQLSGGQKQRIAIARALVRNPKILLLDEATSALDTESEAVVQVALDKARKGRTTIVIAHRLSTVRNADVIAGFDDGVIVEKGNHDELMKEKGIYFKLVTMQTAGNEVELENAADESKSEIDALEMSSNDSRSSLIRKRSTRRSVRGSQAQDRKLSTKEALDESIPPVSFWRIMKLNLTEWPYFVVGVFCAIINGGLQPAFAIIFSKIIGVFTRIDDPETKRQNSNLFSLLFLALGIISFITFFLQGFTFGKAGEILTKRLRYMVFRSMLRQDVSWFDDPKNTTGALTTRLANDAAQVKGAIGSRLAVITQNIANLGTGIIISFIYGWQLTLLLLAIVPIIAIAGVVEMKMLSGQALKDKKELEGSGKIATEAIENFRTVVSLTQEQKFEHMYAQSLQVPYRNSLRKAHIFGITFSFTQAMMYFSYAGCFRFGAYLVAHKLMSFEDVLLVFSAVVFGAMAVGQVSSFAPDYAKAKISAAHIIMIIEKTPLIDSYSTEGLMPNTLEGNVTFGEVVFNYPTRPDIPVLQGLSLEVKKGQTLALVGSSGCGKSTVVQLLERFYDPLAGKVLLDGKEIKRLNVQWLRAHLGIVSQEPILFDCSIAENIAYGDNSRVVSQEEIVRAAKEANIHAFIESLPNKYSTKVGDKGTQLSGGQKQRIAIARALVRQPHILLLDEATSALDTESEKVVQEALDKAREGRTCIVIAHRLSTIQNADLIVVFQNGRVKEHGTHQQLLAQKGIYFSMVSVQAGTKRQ

Compound | solubility kinetic at 24 h [1] [µg/mL] | efflux ratio at 120 min, 1 μM [2] | IC50 [3] [nM]
C[C@@H](CF)Oc1cc2nc(C34CCC(C)(C3)OC4)cn2cc1C(=O)Nc1cccn(C2CC2)c1=O (mixture of isomers) [Example 30, N-(1-cyclopropyl-2-oxo-1,2-dihydropyridin-3-yl)-7-(((S)-1-fluoropropan-2-yl)oxy)-2-(1-methyl-2-oxabicyclo[2.2.1]heptan-4-yl)imidazo[1,2-a]pyridine-6-carboxamide] | 46.5 | 11.1 | 0.2
CC12CC(c3cn4cc(C(=O)Nc5cccn([C@@H]6C[C@@H]6F)c5=O)c(OC5CCC5)cc4n3)(CO1)C2 (racemic) [Example 85, (rac)-Cis-7-cyclobutoxy-N-(1-(2-fluorocyclopropyl)-2-oxo-1,2-dihydropyridin-3-yl)-2-(1-methyl-2-oxabicyclo[2.1.1]hexan-4-yl)imidazo[1,2-a]pyridine-6-carboxamide] | 44.5 (≈ 93 µM) | 7.7 | 0.6
C[C@@]12CC[C@@](c3cn4cc(C(=O)Nc5cccn(C6CC6)c5=O)c(OC5CCC5)nc4n3)(CO1)C2 (single isomer, unassigned) [Example 16] | 5.2 (≈ 10.9 µM) | 2.8 | 0.3
CC(C)Oc1cc2nc([C@@]34CC[C@@H](C3)OC4)cn2cc1C(=O)Nc1cccn(C2CC2)c1=O (single isomer, unassigned) [Example 39] | 68.9 (≈ 154 µM) | 6.8 | 0.2
CC(C)Oc1nc2nc([C@@]34CC[C@@](C)(C3)OC4)cn2cc1C(=O)Nc1ccn(C)n1 (single isomer, unassigned) [Comparator 4C, reference compound] | 51.3 (≈ 125 µM) | 4.6 | 2.5
CCC12CC(c3cn4cc(C(=O)Nc5cccn(C6CC6)c5=O)c(OC(C)C)cc4n3)(CO1)C2 [Example 2, N-(1-cyclopropyl-2-oxo-1,2-dihydropyridin-3-yl)-2-(1-ethyl-2-oxabicyclo[2.1.1]hexan-4-yl)-7-isopropoxyimidazo[1,2-a]pyridine-6-carboxamide] | 65.7 (≈ 142 µM) | 3.3 | 0.4
CC(C)Oc1cc2nc(C34COC(C3)C4)cn2cc1C(=O)Nc1cccn(C2CC2)c1=O [Example 34, 2-(2-oxabicyclo[2.1.1]hexan-4-yl)-N-(1-cyclopropyl-2-oxo-1,2-dihydropyridin-3-yl)-7-isopropoxyimidazo[1,2-a]pyridine-6-carboxamide] | 39.2 (≈ 90.2 µM) | 11.1 | 1
O=C(Nc1cccn(C2CC2F)c1=O)c1cn2cc([C@]34CO[C@](CF)(C3)C4)nc2nc1OC1CCC1 (mixture of isomers) [Example 106, (rac)-Cis-7-cyclobutoxy-N-(1-(2-fluorocyclopropyl)-2-oxo-1,2-dihydropyridin-3-yl)-2-(1-(fluoromethyl)-2-oxabicyclo[2.1.1]hexan-4-yl)imidazo[1,2-a]pyrimidine-6-carboxamide] | 44.4 | 12.8 | 0.5
CC[C@H](C)Oc1cc2nc([C@@]34CC[C@@](C)(C3)OC4)cn2cc1C(=O)Nc1cccn(C2CC2)c1=O (single isomer, unassigned) [Example 22] | 69 (≈ 145 µM) | 4.3 | 0.3
CC[C@H](C)Oc1nc2nc(C34CCC(CF)(C3)OC4)cn2cc1C(=O)Nc1cccn(C2CC2)c1=O (stereo partly drawn) [Example 56, 7-((S)-sec-butoxy)-N-(1-cyclopropyl-2-oxo-1,2-dihydropyridin-3-yl)-2-(1-(fluoromethyl)-2-oxabicyclo[2.2.1]heptan-4-yl)imidazo[1,2-a]pyrimidine-6-carboxamide] | 67.5 (≈ 136 µM) | 4.1 | 0.6
O=C(Nc1cccn(C2CC2)c1=O)c1cn2cc(C34COC(C3)C4)nc2cc1OC1CCC1 [Example 37, 2-(2-oxabicyclo[2.1.1]hexan-4-yl)-7-cyclobutoxy-N-(1-cyclopropyl-2-oxo-1,2-dihydropyridin-3-yl)imidazo[1,2-a]pyridine-6-carboxamide] | 64.4 (≈ 144 µM) | 10.2 | 3.1
C[C@@H]1C[C@@H]1n1cccc(NC(=O)c2cn3cc(C45COC(C)(C4)C5)nc3cc2OC2CCC2)c1=O [Example 190, 7-cyclobutoxy-2-(1-methyl-2-oxabicyclo[2.1.1]hexan-4-yl)-N-(1-((1S,2R)-2-methylcyclopropyl)-2-oxo-1,2-dihydropyridin-3-yl)imidazo[1,2-a]pyridine-6-carboxamide trifluoroacetate] | 54.2 | 4.1 | 0.9

More lines, now with the values ahead:

solubility kinetic at 24 h [1] [µg/mL] | efflux ratio at 120 min, 1 μM [2] | IC50 [3] [nM] | Compound
53.6 (≈ 112 µM) | 2.2 | 4.3 | CC(C)Oc1c(C(=O)Nc2cccn(C3CC3)c2=O)cn2cc([C@]34CC[C@](C)(C3)OC4)nc2c1F (single isomer, unassigned) [Example 68]
24.9 (≈ 50.9 µM) | 1.4 | 0.8 | CC(C)Oc1nc2nc([C@]34CC[C@](C)(C3)OC4)cn2cc1C(=O)Nc1cccn([C@H]2CC23CC3)c1=O (single isomer, unassigned) [Example 152]
29.7 (≈ 61.8 µM) | 1.7 | 0.9 | CC(C)Oc1c(C(=O)Nc2cccn([C@H]3C[C@@H]3C)c2=O)cn2cc(C34COC(C)(C3)C4)nc2c1F [Example 146, 8-fluoro-7-isopropoxy-2-(1-methyl-2-oxabicyclo[2.1.1]hexan-4-yl)-N-(1-((1S,2S)-2-methylcyclopropyl)-2-oxo-1,2-dihydropyridin-3-yl)imidazo[1,2-a]pyridine-6-carboxamide]
55.6 (≈ 116 µM) | 5.3 | 0.6 | CC(C)Oc1cc2nc([C@@]34CC[C@@](C)(C3)OC4)cn2cc1C(=O)Nc1cccn([C@@H]2C[C@H]2F)c1=O [Example 116, N-(1-((1R,2R)-2-fluorocyclopropyl)-2-oxo-1,2-dihydropyridin-3-yl)-7-isopropoxy-2-((1S,4R)-1-methyl-2-oxabicyclo[2.2.1]heptan-4-yl)imidazo[1,2-a]pyridine-6-carboxamide]
49.6 (≈ 107 µM) | 5 | 0.5 | CC[C@H](C)Oc1nc2nc(C34COC(C)(C3)C4)cn2cc1C(=O)Nc1cccn(C2CC2)c1=O (single isomer, unassigned) [Example 64]
72.1 (≈ 150 µM) | 9 | 0.4 | CC[C@@H](C)Oc1nc2nc(C34COC(C)(C3)C4)cn2cc1C(=O)Nc1cccn([C@H]2C[C@H]2F)c1=O (single isomer, unassigned) [Example 58]
73.4 (≈ 146 µM) | 19.2 | 0.2 | C[C@H](Oc1cc2nc(C34COC(C)(C3)C4)cn2cc1C(=O)Nc1cccn(C2C[C@H]2F)c1=O)C(F)F (stereo partly drawn) [Example 184, 7-(((S)-1,1-difluoropropan-2-yl)oxy)-N-(1-((1S,2R)-2-fluorocyclopropyl)-2-oxo-1,2-dihydropyridin-3-yl)-2-(1-methyl-2-oxabicyclo[2.1.1]hexan-4-yl)imidazo[1,2-a]pyridine-6-carboxamide]
19.2 (≈ 41.2 µM) | 2.3 | 0.2 | O=C(Nc1cccn([C@H]2C[C@H]2F)c1=O)c1cn2cc(C34COC(C3)C4)nc2nc1OC1CCC1 (single isomer, unassigned) [Example 167]
59.5 (≈ 124 µM) | 8.7 | 12.6 | CC12CC(c3cn4cc(C(=O)Nc5cccn([C@@H]6C[C@@H]6F)c5=O)c(OC5CCC5)nc4n3)(CO1)C2 (single isomer, unassigned) [Example 113]
48.5 (≈ 102 µM) | 1.5 | 0.4 | CC(C)Oc1cc2nc([C@@]34CC[C@@](C)(C3)OC4)cn2cc1C(=O)Nc1cccn([C@@H]2C[C@H]2C)c1=O (single isomer, unassigned) [Example 191]
38.6 (≈ 83.5 µM) | 4.4 | 0.5 | CC(C)Oc1cc2nc(C34COC(C)(C3)C4)cn2cc1C(=O)Nc1cccn([C@H]2C[C@H]2C)c1=O [Example 134, 7-isopropoxy-2-(1-methyl-2-oxabicyclo[2.1.1]hexan-4-yl)-N-(1-((1S,2R)-2-methylcyclopropyl)-2-oxo-1,2-dihydropyridin-3-yl)imidazo[1,2-a]pyridine-6-carboxamide]
32.6 (≈ 65.4 µM) | 3.4 | 0.7 | CC(C)Oc1c(C(=O)Nc2cccn([C@H]3C[C@H]3F)c2=O)cn2cc([C@]34CC[C@](C)(C3)OC4)nc2c1F (single isomer, unassigned) [Example 127]
22.6 (≈ 47.2 µM) | 10.9 | 0.2 | CC12CC(c3cn4cc(C(=O)Nc5cccn([C@H]6C[C@H]6F)c5=O)c(OC5CCC5)cc4n3)(CO1)C2 (single isomer, unassigned) [Example 173]
70.2 (≈ 157 µM) | 7.5 | 0.4 | CC(C)Oc1cc2nc([C@]34CC[C@H](C3)OC4)cn2cc1C(=O)Nc1cccn(C2CC2)c1=O (single isomer, unassigned) [Example 40]
54.6 (≈ 114 µM) | 8.6 | 0.1 | CC[C@H](C)Oc1cc2nc(C34COC(C)(C3)C4)cn2cc1C(=O)Nc1cccn([C@H]2C[C@H]2F)c1=O (single isomer, unassigned) [Example 161]
38.4 (≈ 83 µM) | 3 | 0.5 | CC(C)Oc1cc2nc(C34COC(C)(C3)C4)cn2cc1C(=O)Nc1cccn([C@@H]2C[C@H]2C)c1=O [Example 139, 7-isopropoxy-2-(1-methyl-2-oxabicyclo[2.1.1]hexan-4-yl)-N-(1-((1R,2R)-2-methylcyclopropyl)-2-oxo-1,2-dihydropyridin-3-yl)imidazo[1,2-a]pyridine-6-carboxamide]
